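A five-concentration, 48-hour dose response in 96-well plates underlies each endpoint, interpolated linearly between surrounding concentrations. GI50 marks 50% less growth. TGI denotes the concentration required for complete inhibition of growth.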

The source of these data is PubChem BioAssay (NCI).

Common to all, as to assay: NCI tumour cell line growth inhibition, 48 h
Test [1] relates to A549 NSCLC.
Test [2] relates to OVCAR-4 ovarian.
Test [3] deals with NCI-H460 lung.
The subject of test [4] is M14 melanoma.
In test [5] the test system is SF-268 CNS.
For test [6], the system named is SN12C renal.
For test [7], the system named is A498 renal.
Test [8] deals with ACHN renal.
Test [9] concerns U251 CNS.
The test system of test [10] is PC-3 prostate.

In the case of `O=C1C2Nc3ccccc3SC2C(=O)N1c1ccc(Br)cc1` (configuration not stated), the TGI in test [1] is over 100 µM; in test [2], 74.2 µM; in test [3] it was over 100 µM; in test [4], over 100 µM; in test [5] it was over 100 µM; in [6], over 100 µM. The values for the TGI in [7] and in test [8] were 82.5 µM and over 100 µM, respectively.
For the compound `COc1ccc(C/C(=N/O)C(=O)NCCc2cc(Br)c(OCCCN(C)C)c(Br)c2)cc1Br`, the TGI came out at 38.4 µM in test [1]; 38.8 µM in test [2]; 33.4 µM in test [3]; 32.8 µM in test [9]; 31.6 µM in [4]; 39.4 µM in [5]. Further, the TGI in test [6] worked out at 33.8 µM; in test [8], 30 µM.
Regarding `CCC(C)CCOC(=O)c1ccc(N=Cc2ccc(C=Nc3ccc(C(=O)OCCC(C)CC)cc3)cc2)cc1` (configuration not stated), the TGI in test [1], in test [2], in test [3], in [9], in test [4] and in test [5] was over 100 µM throughout. Besides, the TGI in test [6], in test [7] and in test [8] was over 100 µM throughout.
Turning to `COC(=O)C1CCc2c1c(=O)n1c([nH]c3ccccc31)c2C#N` (configuration not stated), the TGI in test [1], in [2], in [3], in [9], in [4] and in [5] was over 100 µM in each case. The TGI in [7] and in test [8] was over 100 µM each time.
On to `O=C(NCCCCCCCCCCCCNC(=O)c1cccc2ccccc12)c1cccc2ccccc12`, for which the TGI is over 100 µM in test [1]; 20.5 µM in test [2]; over 100 µM in test [3]; over 59.5 µM in test [9]; over 100 µM in test [4]; over 100 µM in test [5]. Moreover, the TGI is over 100 µM in test [6], over 74.4 µM in test [7] and over 100 µM in [8].
For `Nc1ncnc2c1ncn2[C@]1(CO)C=C(CO)C(O)C1O` (some centres not stated), the TGI in [1], in test [2], in [3], in [9], in test [4] and in test [5] was over 100 µM each time. Further, the TGI in test [6], in [7] and in test [8] was over 100 µM each time.
Take `Cc1ccc(S(=O)(=O)OCCn2cnc3nc(NC(=O)c4ccccc4)[nH]c(=O)c32)cc1`: the TGI in test [1], in test [2], in test [3], in test [9], in test [4] and in test [5] was over 100 µM in each case. Also, the TGI in test [6], in test [7] and in test [8] was over 100 µM in each case.
Regarding `CC1=Nc2ccccc2S/C1=C(/C)NNS(=O)(=O)c1ccc(C)cc1`, the TGI in test [1], in test [2], in test [3], in test [9], in test [4] and in test [5] was over 100 µM in each case. The TGI in test [6], in test [7] and in test [8] was over 100 µM in each case.
Consider `O=C(/C=C/c1cc(Cl)cc(Cl)c1O)c1cccc(O)c1`, for which the TGI was over 100 µM in [1]; over 100 µM in test [2]; over 100 µM in [3]; 80.4 µM in [9]; over 100 µM in test [4]; over 100 µM in test [5]. The TGI in test [6] was 27.7 µM; in test [7] it was over 100 µM; in test [8] it was over 100 µM.
For `Cc1cn(C2CC(O)C(COC(=O)c3ccccc3)O2)c(=O)[nH]c1=O` (configuration not stated), the TGI in test [1], in [2], in test [3], in test [9], in [4] and in [6] was over 100 µM each time. Further, the TGI in test [7] and in [8] was over 100 µM each time.
`COC(=O)C(Cc1cc(OC)c(OC)c(OC)c1)C(=O)OC`: the TGI in test [1], in [3], in test [9], in [5], in test [6] and in test [8] was over 320 µM each time.
Take `N#Cc1c(-c2ccc(Cl)c(Cl)c2)c(-c2ccc(Cl)c(Cl)c2)nn(CC(=O)O)c1=O`: the TGI in [1], in [2], in test [3], in [9], in test [4] and in test [6] was over 100 µM throughout. For the same compound, in test [8], the TGI is over 100 µM.
Take `COC(=O)CC(NC(=O)OCc1ccccc1)C(C(C)=O)C(=O)OCc1ccccc1` (configuration not stated): the TGI in test [1], in test [3], in [9], in [4], in test [5] and in test [6] was over 31.6 µM throughout. In addition, the TGI in test [7] and in [8] was over 31.6 µM throughout.
In the case of `COc1ccc(NC(=O)C(=O)c2c(O)c3ccc(O)cc3oc2=O)c([N+](=O)[O-])c1`, the TGI in [1], in test [2], in [3], in [4], in test [5] and in [7] was over 100 µM each time. The same compound came in with a TGI in test [8] of over 100 µM.
As to `C[C@@H](NC1CCCC[C@H]1O)c1ccccc1` (some centres not stated), the TGI in [1], in test [2], in test [3], in test [9], in [4] and in [5] was over 100 µM in each case. Further, the TGI in test [6], in test [7] and in [8] was over 100 µM throughout.
Consider `CN1c2ccccc2N(C(=O)c2ccc([N+](=O)[O-])cc2)C(CC(=O)O)c2cccn21` (configuration not stated), for which the TGI in [1], in test [2], in test [3], in [4], in test [5] and in test [6] was over 100 µM in each case. In addition, the TGI in test [7] and in test [8] was over 100 µM throughout.
As for `Cn1c2c(c3ccccc31)CCN(CCCCN1CCCCC1)C2=O`, the TGI in [1], in test [2], in test [3], in test [9], in [4] and in test [5] was over 100 µM each time. Besides, the TGI in test [6], in test [7] and in [8] was over 100 µM each time.
As to `C/C(=C1/N=C(c2cc([N+](=O)[O-])ccc2Cl)N(c2cccc(C)c2)C1=O)c1cc2ccccc2oc1=O`, the TGI in test [1], in test [3], in test [4], in test [5], in test [6] and in [7] was over 100 µM each time. The same compound showed a TGI in test [8] of over 100 µM.
For the compound `CN(CCN1C(=O)c2cc([N+](=O)[O-])cc3cc([N+](=O)[O-])cc(c23)C1=O)CCN1C(=O)c2cc([N+](=O)[O-])cc3cc([N+](=O)[O-])cc(c23)C1=O`, the TGI was over 100 µM in [1]; over 100 µM in [2]; over 100 µM in test [9]; 9.23 µM in test [4]; over 100 µM in [5]; over 100 µM in [6]. Besides, the TGI in test [7] and in test [8] was over 100 µM throughout.
With `CC(C)(O)[C@@H]1CC[C@@]2(C)CCCC(O)C2(O)C1` (some centres not stated), the TGI in [1], in test [2], in test [3], in test [9], in [4] and in [5] was over 100 µM throughout. Further, the TGI in [6], in test [7] and in test [8] was over 100 µM throughout.
Consider `Cc1cc(O)c(=O)cc2c1C[C@H]1CC(C)(C)/C=C/C[C@]3(C)Oc4cc(=O)c(O)cc(C)c4C[C@H]3C[C@H](O)[C@@]1(C)O2`, for which the GI50 in [1] was under 0.01 µM; in [2], 0.0172 µM; in test [3], under 0.01 µM; in test [4], 0.0266 µM; in test [5], under 0.01 µM; in test [10] it was under 0.01 µM. Also, the GI50 in [6] is under 0.0133 µM; in test [8], under 0.01 µM. Moreover, the TGI in [1] was 2.13 µM; in [2] it was over 100 µM; in test [3], 10.3 µM; in [4] it was 19.7 µM; in test [5], over 63.1 µM; in [10] it was 23.5 µM. For the same compound, the TGI is over 29.2 µM in test [6] and 14.5 µM in [8].
As to `Cc1nc(-n2nc(-c3ccccc3)cc2-c2ccccc2)sc1C(=O)/C=C/c1ccc(/C=C/C(=O)c2sc(-n3nc(-c4ccccc4)cc3-c3ccccc3)nc2C)cc1`, the TGI in test [1] is over 100 µM; in test [2], over 100 µM; in [3] it was 95.7 µM; in test [9], 34.3 µM; in test [4], 36.7 µM; in [5], 51.6 µM. In addition, the TGI in test [6] was determined as 43.5 µM; in [8], 40.2 µM.
On to `O=C1NC(Cc2ccc(O)cc2)C(=O)N2CCCC12` (configuration not stated), for which the TGI in [1], in [2], in [3], in test [9], in test [4] and in test [5] was over 100 µM in each case. The TGI in test [6], in [7] and in [8] was over 100 µM each time.
On to `COC(=O)CCC(NC(=S)N/N=C(\C)c1cnc2ccccc2n1)C(=O)OC` (configuration not stated), for which the TGI in test [1], in test [2], in test [3], in test [9], in test [4] and in test [5] was over 100 µM each time. For the same compound, the figures for the TGI in test [6], in [7] and in test [8] were over 100 µM, over 100 µM and 89.2 µM, respectively.
As to `CN(C)C=Nc1ccn(CCO)c(=O)n1`, the TGI in test [1], in test [2], in test [3], in test [9], in [4] and in test [5] was over 100 µM each time. Moreover, the TGI in test [6], in test [7] and in test [8] was over 100 µM throughout.
For `COC(=O)C(C(=O)C(=O)Nc1c(C)cccc1C)c1cnc2ccccc2n1` (configuration not stated), the TGI in [1], in test [2], in test [3], in test [9], in test [4] and in test [5] was over 100 µM in each case. Moreover, the TGI in test [6], in [7] and in [8] was over 100 µM throughout.
Regarding `N#CCCN(c1ccc(C=Nc2ccccc2)cc1)S(=O)(=O)c1ccccc1`, the TGI in test [1], in [2], in [4], in test [5], in [6] and in test [7] was over 100 µM throughout.
In the case of `O=C(N/C(=C\c1ccc(Cl)cc1)c1nc2ccccc2[nH]1)c1ccccc1`, the TGI in test [1] came out at 56.1 µM; in test [2] it was 37.9 µM; in [3], 49.7 µM; in test [9], 53.1 µM; in test [4] it was 34.1 µM; in test [5] it was 38.5 µM. Besides, the TGI in test [6] was 49.2 µM; in [7], 52.4 µM; in test [8] it was 80.5 µM.
For `CN1C(=O)CCC1(O)C1C=CC=CC1` (configuration not stated), the TGI in test [1], in [2], in [3], in test [9], in test [4] and in test [5] was over 100 µM each time. For the same compound, the TGI in test [6] and in test [8] was over 100 µM throughout.
